# Source: US20020115611A1, “Methods for screening GABA-modulatory compounds for specified pharmacological activities” (priority 1999, published 2002)
# System: rats
# Experiment: spontaneous locomotor activity
# Assay type: in vivo
# Details: rat, IV; sedation as side effect (Tables V and IX); NS = no statistically significant effect over dose range
# Source text: (§1) A statistically significant effect in the spatial water maze, step-down passive avoidance, spontaneous locomotor activity, Porsolt swim test, or the elevated plus maze models is defined as p<0.05 using a valid parametric statistical test. Likewise, no statistically significant effect is defined in these models as p>0.05 using a valid parametric statistical test. No statistically significant effect for either of the seizure threshold models is defined as a decrease of less than 25% in the seizure threshold in the presence of a seizure inducing drug or a result that is not significant at the p<0.05 level.
# Spontaneous locomotor activity can be measured to determine sedative effects of compounds. Locomotor activity is measured in eight computerized Digiscan-16 Animal Activity Monitors (Omnitech Electronics, Columbus, Ohio) equipped with 48 infrared photocell emitters and detectors. Each box is constructed of Plexiglas sides and floor. Horizontal activity is detected by a set of horizontal sensors on the front to back walls and a second group of sensors on the side to side walls located 5 cm above the cage floor. Vertical activity is detected by a third set of sensors on the side to side walls located 13.5 cm above the cage floor. The rats are tested in the presence of white noise (62 dB) and red light (60 watt). […]
row,SMILES,"spontaneous locomotor activity, minimal efficacious dose [mg/kg]"
1,CCOc1ccc(NC(=O)c2c[nH]c3c2C(=O)CCC3)cc1 [compound 3],4
2,"CC(C)(C)OC(=O)c1ncn2c1C1CCCN1C(=O)c1c(Br)cccc1-2 (stereo not shown) [Ro16-6028, reference compound]",0.06

# Target: α5β3γ2 GABAA subtype receptor (Homo sapiens, UniProt P18507+P31644)
# Sequence (P31644 32-462): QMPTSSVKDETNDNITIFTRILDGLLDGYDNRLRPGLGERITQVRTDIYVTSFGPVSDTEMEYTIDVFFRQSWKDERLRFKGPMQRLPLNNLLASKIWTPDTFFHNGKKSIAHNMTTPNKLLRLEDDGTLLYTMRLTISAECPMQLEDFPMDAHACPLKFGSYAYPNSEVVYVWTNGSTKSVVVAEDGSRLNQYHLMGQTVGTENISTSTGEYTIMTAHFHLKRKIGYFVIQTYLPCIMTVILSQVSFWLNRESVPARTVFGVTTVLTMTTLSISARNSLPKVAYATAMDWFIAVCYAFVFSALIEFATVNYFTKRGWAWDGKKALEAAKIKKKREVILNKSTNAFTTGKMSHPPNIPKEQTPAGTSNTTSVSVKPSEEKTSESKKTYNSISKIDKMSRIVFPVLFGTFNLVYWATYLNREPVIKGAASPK
# Sequence (P28472 26-473 partner): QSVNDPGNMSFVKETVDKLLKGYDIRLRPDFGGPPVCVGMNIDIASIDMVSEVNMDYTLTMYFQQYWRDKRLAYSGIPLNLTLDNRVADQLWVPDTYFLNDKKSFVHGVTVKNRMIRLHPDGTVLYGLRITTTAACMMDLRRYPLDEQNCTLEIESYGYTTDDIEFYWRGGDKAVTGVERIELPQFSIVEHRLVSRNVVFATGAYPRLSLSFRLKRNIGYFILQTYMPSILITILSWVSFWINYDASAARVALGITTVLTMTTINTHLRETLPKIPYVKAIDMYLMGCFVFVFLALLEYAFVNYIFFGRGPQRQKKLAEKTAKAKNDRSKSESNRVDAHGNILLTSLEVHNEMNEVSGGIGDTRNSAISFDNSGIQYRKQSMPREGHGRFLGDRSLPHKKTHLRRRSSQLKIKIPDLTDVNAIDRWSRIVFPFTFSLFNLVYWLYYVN
# Sequence (P18507 40-475): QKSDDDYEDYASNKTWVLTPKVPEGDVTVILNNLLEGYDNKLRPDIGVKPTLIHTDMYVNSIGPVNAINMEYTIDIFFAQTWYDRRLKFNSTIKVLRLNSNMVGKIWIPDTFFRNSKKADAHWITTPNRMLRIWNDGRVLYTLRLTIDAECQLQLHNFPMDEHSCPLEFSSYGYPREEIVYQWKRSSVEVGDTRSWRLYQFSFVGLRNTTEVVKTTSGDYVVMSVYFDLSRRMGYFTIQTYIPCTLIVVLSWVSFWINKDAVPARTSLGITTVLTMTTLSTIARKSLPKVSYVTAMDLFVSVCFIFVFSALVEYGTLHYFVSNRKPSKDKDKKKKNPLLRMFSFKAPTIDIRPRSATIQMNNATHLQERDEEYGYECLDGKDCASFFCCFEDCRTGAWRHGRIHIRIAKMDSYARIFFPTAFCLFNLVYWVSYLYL
# Experiment: cell-based
# Details: Xenopus laevis oocytes, human subunits, GABA at EC10; negative = inverse agonism
# Source text: (§2) The in vitro efficacy and EC50 value of the test compound may be determined by measuring the chloride flux at the surface of a cell expressing the α,β, and γ subunits of the GABAA receptor in response to GABA by the two electrode voltage-clamp technique. While a variety of cells are suitable for use herein, the preferred cells used in this technique are Xenopus laevis oocytes that have been injected with non-polyadenylated CRNA coding for human derived α, βand γ GABAA subunits. The preferred form of the γ subunit is the normally expressed long form although an alternatively spliced form may be used.
# (§3) Assays are carried out as described previously in White and Gurley, 1995 and White, et al., 1995. Xenopus laevis oocytes are enzymatically isolated and injected with non-polyadenylated cRNA for human derived α, β and γ GABAA subunits, respectively. In more preferred embodiments cRNA for the α1β2γ2, α2β3γ2, α3β3γ2, and α5β3γ2 subunit combinations are injected. Only one of these subunit combinations is injected per cell. For each subunit combination, sufficient message is injected to result in current amplitudes of >10 nA when 1 μM GABA is applied. Electrophysiological recordings are carried out using the two electrode voltage-clamp technique at a membrane holding potential of −70 mV.
# (§4) Compounds are evaluated against a GABA concentration that evokes <10% (EC10) of the maximal evocable GABA current. Each oocyte is exposed to increasing concentrations of compound in order to evaluate a concentration/effect relationship.
# (§5) Specificity of a compound for the Ro15-1788 site is determined following completion of the concentration/effect curve. After washing the oocyte sufficiently to remove previously applied compound, the oocyte is exposed to GABA and 1 μM Ro15-1788, followed by exposure to GABA, 1 μM Ro15-1788, and compound. Percent change due to addition of compound is calculated as described above. Any percent change observed in the presence of Ro15-1788 is subtracted from the percent changes in current amplitude observed in the absence of 1 μM Ro15-1788. These net values are used for the calculation of average activity and EC50 values.
# (§6) To evaluate average activity and EC50 values, the concentration/effect data are averaged across cells and fit to the logistic equation. Average values are reported as mean±standard error.
row,SMILES,oocyte electrophysiology maximum potentiation α5β3γ2 [%]
1,CC1CC(=O)c2c(C(=O)Nc3ccc(F)cc3)c[nH]c2C1 (stereo not shown) [compound 8],16

# Same assay, conditions: Xenopus laevis oocytes, human subunits, GABA at EC10; read-out: oocyte electrophysiology EC50 α5β3γ2
row,SMILES,EC50 [nM]
1,CCOc1ccc(NC(=O)c2c[nH]c3c2C(=O)CCC3)cc1 [compound 3],186
2,COc1ccc(NC(=O)c2c[nH]c3c2C(=O)CC(C)(C)C3)c(F)c1 [compound 6],108
3,COc1ccc(F)c(-c2ncc3[nH]c4c(c3n2)CCCC4)c1 [compound 11],847
4,CNCc1ccc(NC(=O)c2c[nH]c3c2C(=O)CCCC3)cc1 [compound 4],186
5,O=c1[nH]c2c(n1-c1nc3ccc(F)c(F)c3o1)CCCCC2 [compound 7],174

# Same assay, conditions: oocyte electrophysiology EC50 α5β3γ2, Xenopus laevis oocytes, human subunits, GABA at EC10
row,SMILES,EC50 [nM]
1,O=c1c2c[nH]c3ccccc3n-2c(=O)n1-c1ccc(F)cc1 [compound 10],81
2,CCOc1ccc(NC(=O)c2c[nH]c3c2C(=O)CCC3)cc1 [compound 3],36
3,CC1CC(=O)c2c(C(=O)Nc3ccc(F)cc3)c[nH]c2C1 (stereo not shown) [compound 8],40

# Same assay, conditions: read-out: oocyte electrophysiology maximum potentiation α5β3γ2
row,SMILES,Emax [%]
1,COc1ccc(NC(=O)c2c[nH]c3c2C(=O)CC(C)(C)C3)c(F)c1 [compound 6],42

# Target: α3β3γ2 GABAA subtype receptor (Homo sapiens, UniProt P18507+P34903)
# Sequence (P34903 29-492): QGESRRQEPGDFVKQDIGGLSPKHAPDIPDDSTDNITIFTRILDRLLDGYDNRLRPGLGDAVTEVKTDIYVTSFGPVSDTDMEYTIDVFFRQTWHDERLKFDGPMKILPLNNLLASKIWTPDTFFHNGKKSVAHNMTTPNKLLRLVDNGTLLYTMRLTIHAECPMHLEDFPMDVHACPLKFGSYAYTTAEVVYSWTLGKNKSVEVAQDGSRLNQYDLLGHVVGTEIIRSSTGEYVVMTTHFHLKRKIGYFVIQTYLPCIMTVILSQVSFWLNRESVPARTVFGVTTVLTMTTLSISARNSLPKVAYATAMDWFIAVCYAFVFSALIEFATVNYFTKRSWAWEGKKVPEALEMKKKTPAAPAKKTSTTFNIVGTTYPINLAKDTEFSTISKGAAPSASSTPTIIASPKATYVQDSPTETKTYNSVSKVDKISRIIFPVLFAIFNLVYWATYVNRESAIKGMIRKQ
# Sequence (P28472 26-473 partner): as the sequence (P28472 26-473 partner) above
# Sequence (P18507 40-475): as the sequence (P18507 40-475) above
# Experiment: cell-based
# Details: Xenopus laevis oocytes, human subunits, GABA at EC10; negative = inverse agonism
# Source text: as §2, §3, §4, §5, §6
row,SMILES,oocyte electrophysiology maximum potentiation α3β3γ2 [%]
1,COc1ccc(NC(=O)c2c[nH]c3c2C(=O)CC(C)(C)C3)c(F)c1 [compound 6],95
2,CC1CC(=O)c2c(C(=O)Nc3ccc(F)cc3)c[nH]c2C1 (stereo not shown) [compound 8],61
3,O=c1[nH]c2c(n1-c1nc3ccc(F)c(F)c3o1)CCCCC2 [compound 7],83

# Same assay, conditions: Xenopus laevis oocytes, human subunits, GABA at EC10; read-out: oocyte electrophysiology EC50 α3β3γ2
row,SMILES,EC50 [nM]
1,CCOc1ccc(NC(=O)c2c[nH]c3c2C(=O)CCC3)cc1 [compound 3],133
2,COc1ccc(F)c(-c2ncc3[nH]c4c(c3n2)CCCC4)c1 [compound 11],177
3,CNCc1ccc(NC(=O)c2c[nH]c3c2C(=O)CCCC3)cc1 [compound 4],133

# Same assay, conditions: oocyte electrophysiology EC50 α3β3γ2, Xenopus laevis oocytes, human subunits, GABA at EC10
row,SMILES,EC50 [nM]
1,O=c1c2c[nH]c3ccccc3n-2c(=O)n1-c1ccc(F)cc1 [compound 10],46
2,CCOc1ccc(NC(=O)c2c[nH]c3c2C(=O)CCC3)cc1 [compound 3],23
3,COc1ccc(NC(=O)c2c[nH]c3c2C(=O)CC(C)(C)C3)c(F)c1 [compound 6],33
4,CNCc1ccc(NC(=O)c2c[nH]c3c2C(=O)CCCC3)cc1 [compound 4],51
5,CC1CC(=O)c2c(C(=O)Nc3ccc(F)cc3)c[nH]c2C1 (stereo not shown) [compound 8],37
6,O=c1[nH]c2c(n1-c1nc3ccc(F)c(F)c3o1)CCCCC2 [compound 7],9

# Target: α1β2γ2 GABAA subtype receptor (Homo sapiens, UniProt P14867+P18507)
# Sequence (P14867 28-456): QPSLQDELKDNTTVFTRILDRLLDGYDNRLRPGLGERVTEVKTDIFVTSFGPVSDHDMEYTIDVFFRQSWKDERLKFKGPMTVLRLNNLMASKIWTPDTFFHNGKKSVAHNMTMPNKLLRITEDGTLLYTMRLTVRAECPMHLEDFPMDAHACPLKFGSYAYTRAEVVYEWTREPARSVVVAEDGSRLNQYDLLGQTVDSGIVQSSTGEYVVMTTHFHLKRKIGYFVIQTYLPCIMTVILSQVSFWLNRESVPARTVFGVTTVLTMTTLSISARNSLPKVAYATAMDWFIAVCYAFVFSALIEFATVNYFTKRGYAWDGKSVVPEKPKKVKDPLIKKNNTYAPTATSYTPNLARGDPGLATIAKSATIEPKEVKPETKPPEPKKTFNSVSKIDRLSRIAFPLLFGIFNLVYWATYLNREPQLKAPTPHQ
# Sequence (P47870 25-512 partner limits assumed): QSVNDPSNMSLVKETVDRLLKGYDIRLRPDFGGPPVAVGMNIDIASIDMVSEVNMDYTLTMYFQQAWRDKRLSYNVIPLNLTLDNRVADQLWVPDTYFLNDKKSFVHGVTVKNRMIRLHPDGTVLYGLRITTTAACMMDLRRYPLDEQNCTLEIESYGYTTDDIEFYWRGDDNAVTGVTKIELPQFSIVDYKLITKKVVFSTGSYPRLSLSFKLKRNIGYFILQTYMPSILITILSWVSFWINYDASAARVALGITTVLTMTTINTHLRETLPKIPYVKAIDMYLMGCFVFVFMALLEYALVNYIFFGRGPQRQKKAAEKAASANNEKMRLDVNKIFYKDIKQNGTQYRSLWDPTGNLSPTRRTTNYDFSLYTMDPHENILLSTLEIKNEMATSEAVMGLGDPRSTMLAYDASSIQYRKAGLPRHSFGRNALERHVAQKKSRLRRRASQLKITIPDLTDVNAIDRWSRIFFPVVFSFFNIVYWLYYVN
# Sequence (P18507 40-475): as the sequence (P18507 40-475) above
# Experiment: cell-based
# Details: Xenopus laevis oocytes, human subunits, GABA at EC10; negative = inverse agonism
# Source text: as §2, §3, §4, §5, §6
row,SMILES,oocyte electrophysiology maximum potentiation α1β2γ2 [%]
1,CNCc1ccc(NC(=O)c2c[nH]c3c2C(=O)CCCC3)cc1 [compound 4],23
2,CC1CC(=O)c2c(C(=O)Nc3ccc(F)cc3)c[nH]c2C1 (stereo not shown) [compound 8],17
3,O=c1[nH]c2c(n1-c1nc3ccc(F)c(F)c3o1)CCCCC2 [compound 7],18

# Same assay, conditions: Xenopus laevis oocytes, human subunits, GABA at EC10; read-out: oocyte electrophysiology EC50 α1β2γ2
row,SMILES,EC50 [nM]
1,CCOc1ccc(NC(=O)c2c[nH]c3c2C(=O)CCC3)cc1 [compound 3],107
2,CNCc1ccc(NC(=O)c2c[nH]c3c2C(=O)CCCC3)cc1 [compound 4],107

# Same assay, conditions: oocyte electrophysiology EC50 α1β2γ2, Xenopus laevis oocytes, human subunits, GABA at EC10
row,SMILES,EC50 [nM]
1,CCOc1ccc(NC(=O)c2c[nH]c3c2C(=O)CCC3)cc1 [compound 3],33
2,COc1ccc(NC(=O)c2c[nH]c3c2C(=O)CC(C)(C)C3)c(F)c1 [compound 6],44
3,COc1ccc(F)c(-c2ncc3[nH]c4c(c3n2)CCCC4)c1 [compound 11],21
4,CNCc1ccc(NC(=O)c2c[nH]c3c2C(=O)CCCC3)cc1 [compound 4],48
5,CC1CC(=O)c2c(C(=O)Nc3ccc(F)cc3)c[nH]c2C1 (stereo not shown) [compound 8],14
6,O=c1[nH]c2c(n1-c1nc3ccc(F)c(F)c3o1)CCCCC2 [compound 7],5

# Same assay, conditions: read-out: oocyte electrophysiology maximum potentiation α1β2γ2
row,SMILES,Emax [%]
1,CCOc1ccc(NC(=O)c2c[nH]c3c2C(=O)CCC3)cc1 [compound 3],26
2,COc1ccc(NC(=O)c2c[nH]c3c2C(=O)CC(C)(C)C3)c(F)c1 [compound 6],25

# Target: α2β3γ2 GABAA subtype receptor (Homo sapiens, UniProt P18507+P47869)
# Sequence (P47869 29-451): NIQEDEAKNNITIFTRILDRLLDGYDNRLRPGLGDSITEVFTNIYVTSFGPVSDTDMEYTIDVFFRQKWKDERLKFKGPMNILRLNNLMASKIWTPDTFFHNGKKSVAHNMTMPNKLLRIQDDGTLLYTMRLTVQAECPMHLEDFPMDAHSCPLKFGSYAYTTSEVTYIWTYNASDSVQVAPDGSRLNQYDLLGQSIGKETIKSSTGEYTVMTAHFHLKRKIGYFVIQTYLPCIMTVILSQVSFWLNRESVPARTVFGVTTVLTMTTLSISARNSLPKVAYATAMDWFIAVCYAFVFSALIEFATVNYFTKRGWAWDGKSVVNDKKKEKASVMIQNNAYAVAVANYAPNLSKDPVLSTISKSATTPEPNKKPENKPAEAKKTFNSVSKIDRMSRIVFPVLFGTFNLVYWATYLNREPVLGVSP
# Sequence (P28472 26-473 partner): as the sequence (P28472 26-473 partner) above
# Sequence (P18507 40-475): as the sequence (P18507 40-475) above
# Experiment: cell-based
# Details: Xenopus laevis oocytes, human subunits, GABA at EC10; negative = inverse agonism
# Source text: as §2, §3, §4, §5, §6
row,SMILES,oocyte electrophysiology maximum potentiation α2β3γ2 [%]
1,COc1ccc(NC(=O)c2c[nH]c3c2C(=O)CC(C)(C)C3)c(F)c1 [compound 6],72
2,CNCc1ccc(NC(=O)c2c[nH]c3c2C(=O)CCCC3)cc1 [compound 4],66
3,CC1CC(=O)c2c(C(=O)Nc3ccc(F)cc3)c[nH]c2C1 (stereo not shown) [compound 8],42
4,O=c1[nH]c2c(n1-c1nc3ccc(F)c(F)c3o1)CCCCC2 [compound 7],51

# Same assay, conditions: Xenopus laevis oocytes, human subunits, GABA at EC10; read-out: oocyte electrophysiology EC50 α2β3γ2
row,SMILES,EC50 [nM]
1,CCOc1ccc(NC(=O)c2c[nH]c3c2C(=O)CCC3)cc1 [compound 3],108
2,CNCc1ccc(NC(=O)c2c[nH]c3c2C(=O)CCCC3)cc1 [compound 4],108

# Same assay, conditions: oocyte electrophysiology EC50 α2β3γ2, Xenopus laevis oocytes, human subunits, GABA at EC10
row,SMILES,EC50 [nM]
1,O=c1c2c[nH]c3ccccc3n-2c(=O)n1-c1ccc(F)cc1 [compound 10],31
2,CCOc1ccc(NC(=O)c2c[nH]c3c2C(=O)CCC3)cc1 [compound 3],12
3,COc1ccc(NC(=O)c2c[nH]c3c2C(=O)CC(C)(C)C3)c(F)c1 [compound 6],28
4,COc1ccc(F)c(-c2ncc3[nH]c4c(c3n2)CCCC4)c1 [compound 11],96
5,CNCc1ccc(NC(=O)c2c[nH]c3c2C(=O)CCCC3)cc1 [compound 4],19
6,CC1CC(=O)c2c(C(=O)Nc3ccc(F)cc3)c[nH]c2C1 (stereo not shown) [compound 8],39
7,O=c1[nH]c2c(n1-c1nc3ccc(F)c(F)c3o1)CCCCC2 [compound 7],4

# Same assay, conditions: read-out: oocyte electrophysiology maximum potentiation α2β3γ2
row,SMILES,Emax [%]
1,CCOc1ccc(NC(=O)c2c[nH]c3c2C(=O)CCC3)cc1 [compound 3],52

# System: rats
# Experiment: Porsolt forced swim test
# Assay type: in vivo
# Details: rat, administered IV; antidepressant effect
# Source text: as §1
# The effects measured in this model have been correlated to antidepressant efficacy for drugs. The paradigm of this model is that an effective antidepressant compound will cause a rat to make greater attempts to escape a water-filled cylinder than a rat given vehicle only.
# Animals used in this study were non-naive male Sprague Dawley Rats (SASCO, St. Louis) weighing between 280-350 grams. The test apparatus consists of 6 clear Plexiglas cylinders 40 cm high×19 cm wide. Cylinders are filled to 18 cm with 25° C. water. Each rat is placed in a cylinder for a 15 minute training session. Following either subchronic or acute dosing of either vehicle (0.5% methylcellulose) of compound, animals are brought back 24 hours later for a 5 minute test session. These test session is videotaped for later scoring.
# Subchronic dosing consists of administering drug three times in the 24-hour period between training and testing. The drug is administered 24 hrs., 5 hrs., and 1 hr. prior to the test session. Acute dosing consists of administering the drug once, 1 hour prior to the test session. Scoring is done using a time-sampling computer program written in Visual Basic and run in DOS. […] These sampling score are then converted into percentages of the test session.
row,SMILES,"Porsolt swim test, minimal efficacious dose [mg/kg]"
1,CCOc1ccc(NC(=O)c2c[nH]c3c2C(=O)CCC3)cc1 [compound 3],20
2,CNCc1ccc(NC(=O)c2c[nH]c3c2C(=O)CCCC3)cc1 [compound 4],20
3,"CC(C)(C)OC(=O)c1ncn2c1C1CCCN1C(=O)c1c(Br)cccc1-2 (stereo not shown) [Ro16-6028, reference compound]",1

# System: rats
# Experiment: step-down passive avoidance
# Assay type: in vivo
# Details: rat; cognitive impairment side effect (Table VII); NS = no statistically significant effect over dose range
# Source text: as §1
# In step-down passive avoidance a rat is placed on a platform located in the center of an electrified grid floor that is contained within a large (45 cm×45 cm×50 cm) white translucent Plexiglas® enclosure. The natural inclination of the rat is to step off the platform and investigate its surroundings. […] Each time the animal steps off the platform it receives a mild foot shock of 2 mAmps×6 sec. Following each shock the animal is removed from the box, placed in its cage for a one minute inter-trial interval, and then returned to the platform. The latency to step down on each trial, the number of trials taken to reach criterion during training and the retention latency are collected.
# Testing is conducted approximately 24 hrs. after training. Drug-free animals are placed on the platform in the box in which they will have been trained and the latency to step down onto the grid floor is recorded for one trial as a measure of memory retention.
row,SMILES,"step-down passive avoidance, minimal efficacious dose [mg/kg]"
1,COc1ccc(NC(=O)c2c[nH]c3c2C(=O)CC(C)(C)C3)c(F)c1 [compound 6],4
